In publication PMC6150271, “‘Click Chemistry’ Synthesis of Novel Natural Product-Like Caged Xanthones Bearing a 1,2,3-Triazole Moiety with Improved Druglike Properties as Orally Active Antitumor Agents” (Molecules : A Journal of Synthetic Chemistry and Natural …, 2017):
≈ marks a conversion by molar mass, not a printed value. Like-named read-outs stand apart in the source and are kept apart here. Marks after values point to notes of the source that are not given here.

Assays:
[1] = system: human colon carcinoma HCT-116 cell line; assay: MTT antiproliferative assay, HCT116; type: cell-based; details: 72 h
Procedure: (§1) The antiproliferative activity of the ten synthesized caged xanthone derivatives, as well as the lead compound DDO-6101 and GA were assessed with the 3-(4,5-dimethylthiazol-2-yl)-2,5-diphenyltetrazolium bromide (MTT) assay, as previously reported, against six human cancer cell lines, including the human lung carcinoma A549 cell line, taxol-resistant A549 cell line (A549/taxol), cisplatin-resistant A549 cell line (A549/cisplatin), the human hepatocellular carcinoma HepG2 cell line, the human colon carcinoma HCT-116 cell line, and the human glioblastoma U251 cell line. DDO-6101 and GA were used as positive controls for the in vitro assay.
(§2) Cancer cell lines were obtained from Cell Bank of Shanghai, Chinese Academy of Sciences. Cells were cultured in 90% RPMI 1640 medium (GIBCO, Invitrogen Corporation, New York, NY, USA) supplemented with 10% fetal bovine serum (Sijiqing Biotechnology Co., Hangzhou, China), 100 U/mL benzyl penicillin, and 100 μg/mL streptomycin in a humidified environment with 5% CO2 at 37 °C. All the tested compounds were dissolved in DMSO at a concentration of 0.01 mol/L and stored at −4 °C.
(§3) The inhibition of tumour cell growth was measured by a modified tetrazolium (MTT) salt assay. Cells were cultured in a 96-well plate and treated with culture medium alone or different concentrations of the compounds. The cells were incubated for 72 h, and then the MTT assay reagent was added. After a 4 h incubation, the formazan product was quantitated at 570 nm. The IC50 values (the concentrations that gave rise to 50% inhibition of cell viability) were calculated using GraphPad Prism 6 using a variable slope (four parameters).

[2] = system: human hepatocellular carcinoma HepG2 cell line; assay: MTT antiproliferative assay, HepG2; type: cell-based; details: 72 h
Procedure: as §1, §2, §3

[3] = Parallel artificial membrane permeability assay (PAMPA)
Excerpt: (§4) In parallel with the in vitro antitumor activity testing, the physicochemical properties of the target caged xanthone derivatives were theoretically predicted and experimentally determined in an effort to identify potential druglike compounds prior to the time-consuming and costly development and optimization of derivatives that may ultimately fail in efficacy experiments in vivo. The partition coefficient (logD) was experimentally determined on a Gemini Profiler instrument (pION, Inc., Woburn, MA, USA) by a potentiometric titration method. The polar surface area (PSA), as well as intestinal absorption level, were theoretically predicted by Accelrys Discovery Studio 4.0 (BIOVIA, San Diego, CA, USA) using the ADMET protocol. […] The permeability coefficient (Pe) was determined using a standard parallel artificial membrane permeability assay (PAMPA) on a PAMPA Explorer instrument (pION).
A HPLC system with an ultraviolet (UV) detector was used to detect the solubility of the compounds. The optimal wavelength was 290 nm. Ethanol/water (85:15) was an efficient eluent at a flow rate of 0.5 mL/min. The compounds were stirred in deionized water overnight to maximize the retention of the compounds in solution. Then, the solutions were filtered and the supernatant was used as a fluid sample for HPLC detection. The permeability (Pe) of the compounds was tested with the help of a standard PAMPA (pION). PAMPA was performed on a PAMPA Explorer instrument (pION) with the PAMPA Explorer command software (Version 3.7.4.1). The compounds were diluted to 10 mM with the system solution buffer (pH 7.4). Then, 150 μL of the diluted compound solution was transferred to a UV plate, and the UV spectrum was collected and used as a reference. Then, paint the membrane with 5 μL of gastrointestinal tract (GIT) lipid. The acceptor chamber was filled with 200 μL of acceptor solution buffer, and the donor chamber was filled with 200 μL of diluted compound solution. […] The UV spectra (240–500 nm) from the donor and the acceptor were collected. The permeability coefficient was calculated with the PAMPA Explorer Command software (Version 3.7.4.1) based on the area under the curve (AUC) of the reference plate, the donor plate, and the acceptor plate. The permeability coefficient of the compound was tested for four times, and the data are shown as the average values.

U2OS cells = assay: MTT antiproliferative assay, U2OS; type: cell-based; details: Homo sapiens, 72 h
[4] = system: cisplatin-resistant A549 cell line (A549/cisplatin); assay: MTT antiproliferative assay, A549/cisplatin; type: cell-based; details: Homo sapiens, 72 h
Procedure: as §1, §2, §3

[5] = system: taxol-resistant A549 cell line (A549/taxol); assay: MTT antiproliferative assay, A549/taxol; type: cell-based; details: Homo sapiens
Procedure: as §1, §2, §3

[6] = Aqueous solubility by HPLC; details: thermodynamic from solid
Excerpt: as §4
A HPLC system with an ultraviolet (UV) detector was used to detect the solubility of the compounds. The optimal wavelength was 290 nm. Ethanol/water (85:15) was an efficient eluent at a flow rate of 0.5 mL/min. The compounds were stirred in deionized water overnight to maximize the retention of the compounds in solution. Then, the solutions were filtered and the supernatant was used as a fluid sample for HPLC detection. The permeability (Pe) of the compounds was tested with the help of a standard PAMPA (pION). PAMPA was performed on a PAMPA Explorer instrument (pION) with the PAMPA Explorer command software (Version 3.7.4.1). The compounds were diluted to 10 mM with the system solution buffer (pH 7.4). Then, 150 μL of the diluted compound solution was transferred to a UV plate, and the UV spectrum was collected and used as a reference. Then, paint the membrane with 5 μL of gastrointestinal tract (GIT) lipid. The acceptor chamber was filled with 200 μL of acceptor solution buffer, and the donor chamber was filled with 200 μL of diluted compound solution. The PAMPA sandwich was assembled and left at 25 °C for 4 h. The UV spectra (240–500 nm) from the donor and the acceptor were collected. The permeability coefficient was calculated with the PAMPA Explorer Command software (Version 3.7.4.1) based on the area under the curve (AUC) of the reference plate, the donor plate, and the acceptor plate. The permeability coefficient of the compound was tested for four times, and the data are shown as the average values.

[7] = logD by potentiometric titration (Gemini Profiler); type: physicochemical; details: measured on Gemini Profiler instrument (pION); for logD: pH 7.4, read-out: Log D 7.4
[8] = system: human lung carcinoma A549 cell line; assay: MTT antiproliferative assay, A549; type: cell-based; details: Homo sapiens, A549; MTT, 72 h
Procedure: as §1, §2, §3

[9] = system: lung cancer A549 transplanted mouse model; assay: In vivo tumor growth inhibition, intravenous administration; set-up: species or system Kunming mice; details: 20 mg/kg
Procedure: The lung cancer A549 transplanted mouse model was employed. DDO-6101 and antitumor drug 5-fluorouracil (5-FU) were also tested for comparison.
Kunming mice with body weights of 18–22 g were transplanted with lung cancer A549 cells according to protocols of transplant tumor research, as previously reported. Twenty-four hours after tumor transplantation, animals were weighed and randomly divided into five groups. All test drugs were given […] 24 h after tumor transplantation. The treated groups were intravenously injected or administered per os different doses of test compounds, respectively. The negative control group received 0.9% normal saline. Treatments were conducted at a frequency of one dose per two days for the intravenous group or one dose per day for the per os group for two or one week, respectively. All animals were sacrificed 24 h after the final treatment. All data are presented as mean ± SD and the statistical significance was evaluated by t-test.

[10] = A549/Taxol, MTT, 72 h, read-out: IC50 A549/Taxol

SMILES	IC50 [1]	IC50 [2]	Papp at 4 h, 10 mM ([3]; pH 5)	Papp at 4 h, 10 mM ([3]; pH 6.2)	Papp at 4 h, 10 mM ([3]; pH 7.4)	IC50 (U2OS cells)	IC50 [4]	IC50 [5, 10]	solubility ([6]; deionized water)	logD [7]	melting point	IC50 [8]	also measured
CC(C)=CCC12OC(C)(C)C3CC(C=C4C(=O)c5c(OCc6cn(CCCN(C)C)nn6)cccc5OC431)C2=O (stereo not drawn) [Compound 8b]	2.27 ± 0.05 µM	1.36 ± 0.16 µM	16.3 ± 1.2 ×10⁻⁶ cm/s	41.7 ± 3.2 ×10⁻⁶ cm/s	76.1 ± 6.4 ×10⁻⁶ cm/s	2.73 ± 0.05 µM	1.66 ± 0.11 µM	1.3 ± 0.08 µM	1540 µM (≈ 842 µg/mL)	1.8	133 to 136 °C	2.62 ± 0.2 µM	
CC(C)=CCC[C@]1(C)C=Cc2c(O)c3c(c(CC=C(C)C)c2O1)O[C@]12C(=C[C@@H]4C[C@H]1C(C)(C)O[C@@]2(C/C=C(/C)C(=O)O)C4=O)C3=O [GA, Gambogic acid, reference compound]	0.34 ± 0.08 µM					4.67 ± 0.11 µM	2.5 ± 0.06 µM	0.29 ± 0.04 µM					Pe range ([3]; PAMPA, 4 h, 10 mM): 0.9–2.3 × 10^–6 cm/s; Papp at 4 h, 10 mM ([3]; PAMPA, pH 5): 0.9 ± 0.5 ×10⁻⁶ cm/s; Pe pH=6.2 ([3]; pH 6.2): 1.8±0.2 10-6 cm/s; Pe pH=7.4 ([3]; pH 7.4): 2.3±0.3 10-6 cm/s; solubility ([6]; water): < 5 µM; Log D 7.4 [7]: 3.6
CC(C)=CCC12OC(C)(C)C3CC(C=C4C(=O)c5c(OCc6cn(CCCN7CCCCC7)nn6)cccc5OC431)C2=O (stereo not drawn) [Compound 8f]	1.39 ± 0.04 µM	6.3 ± 0.48 µM	34.9 ± 3.6 ×10⁻⁶ cm/s	55.1 ± 0.8 ×10⁻⁶ cm/s	68.7 ± 5.3 ×10⁻⁶ cm/s	2.07 ± 0.11 µM	1.32 ± 0.12 µM	1.29 ± 0.08 µM	880 µM (≈ 516 µg/mL)	2.7	125 to 128 °C	1.07 ± 0.28 µM	
CC(C)NCC(O)COc1cccc2ccccc12 (stereo not drawn) [Propranolol, reference compound]													Pe pH=7.4 ([3]; pH 7.4): 127.5±15.8 10-6 cm/s; Pe pH=7.4 ([3]; pH 7.4, listed as propranolol): 127.5 10-6 cm/s
O=c1[nH]cc(F)c(=O)[nH]1 [Compound 5-FU, 5-fluorouracil, reference compound]													Body Weight Pre-Dose ([9]; pre-dose): 20.25 ± 1.27 g; Body Weight After-Dose ([9]; two weeks): 24.43 ± 2.62 g; Inhibitory Rate ([9]; two weeks): 64.71%; Weight of Tumor ([9]; two weeks): 0.48 ± 0.17 ^b g
CC(C)=CCC12OC(C)(C)C3CC(C=C4C(=O)c5c(OCc6cn(CCCN7CCOCC7)nn6)cccc5OC431)C2=O (stereo not drawn) [Compound 8h]	0.95 ± 0.12 µM	3.07 ± 0.13 µM	40 ± 0.1 ×10⁻⁶ cm/s	58 ± 6.1 ×10⁻⁶ cm/s	72.6 ± 0.1 ×10⁻⁶ cm/s	0.73 ± 0.07 µM	0.36 ± 0.04 µM	0.55 ± 0.08 µM	3700 µM (≈ 2180 µg/mL)	0.9	143 to 145 °C	1.03 ± 0.06 µM	IC50 ([5]; range over both resistant A549 lines and both compounds, read-out: IC50 values, taxol-resistant and cisplatin-resistant A549 cell lines): 0.33 to 0.55 µM
CC(C)=CCC12OC(C)(C)C3CC(C=C4C(=O)c5c(OCc6cn(CCN7CCN(C)CC7)nn6)cccc5OC431)C2=O (stereo not drawn) [Compound 8i]	6.15 ± 0.86 µM	5.35 ± 0.23 µM	11.3 ± 0.6 ×10⁻⁶ cm/s	41.5 ± 1.3 ×10⁻⁶ cm/s	67.5 ± 4.2 ×10⁻⁶ cm/s	9.51 ± 1.52 µM	0.78 ± 0.08 µM	2.12 ± 0.09 µM	3220 µM (≈ 1890 µg/mL)	1	171 to 175 °C	3.33 ± 0.49 µM	
CC(C)=CCC12OC(C)(C)C3CC(C=C4C(=O)c5c(OCc6cn(CCCN7CCCC7)nn6)cccc5OC431)C2=O (stereo not drawn) [Compound 8d]	1.02 ± 0.03 µM	4.48 ± 0.29 µM	15.4 ± 2.1 ×10⁻⁶ cm/s	52.8 ± 1.6 ×10⁻⁶ cm/s	66.4 ± 8.4 ×10⁻⁶ cm/s	3.05 ± 0.07 µM	0.89 ± 0.24 µM	1.7 ± 0.12 µM	1920 µM (≈ 1100 µg/mL)	1.6	144 to 146 °C	2.62 ± 0.04 µM	
CC(C)=CCC12OC(C)(C)C3CC(C=C4C(=O)c5c(OCc6cn(CCN7CCCCC7)nn6)cccc5OC431)C2=O (stereo not drawn) [Compound 8e]	2.14 ± 0.18 µM	4.85 ± 0.39 µM	47.8 ± 4.7 ×10⁻⁶ cm/s	57.2 ± 1.4 ×10⁻⁶ cm/s	78.2 ± 8.8 ×10⁻⁶ cm/s	4.66 ± 0.03 µM	1.29 ± 0.48 µM	2.03 ± 0.11 µM	560 µM (≈ 321 µg/mL)	2.9	173 to 176 °C	2.17 ± 0.12 µM	Pe range ([3]; range under different pH from 5.0 to 7.4): 47.0–78.2 × 10^–6 cm/s
CC(C)=CCC12OC(C)(C)C3CC(C=C4C(=O)c5c(OCc6cn(CCN(C)C)nn6)cccc5OC431)C2=O (stereo not drawn) [Compound 8a]	1.64 ± 0.26 µM	2.12 ± 0.41 µM	27.9 ± 3.3 ×10⁻⁶ cm/s	58.8 ± 2.1 ×10⁻⁶ cm/s	91.4 ± 9.8 ×10⁻⁶ cm/s	2.22 ± 0.09 µM	1.48 ± 0.1 µM	1.22 ± 0.21 µM	1120 µM (≈ 597 µg/mL)	2.1	156 to 158 °C	1.95 ± 0.4 µM	
CC(C)=CCC12OC(C)(C)C3CC(C=C4C(=O)c5c(OCc6cn(CCCN7CCN(C)CC7)nn6)cccc5OC431)C2=O (stereo not drawn) [Compound 8j]	1.09 ± 0.21 µM	2.91 ± 0.03 µM	9.7 ± 0.5 ×10⁻⁶ cm/s	43.2 ± 0.7 ×10⁻⁶ cm/s	64.9 ± 5.4 ×10⁻⁶ cm/s	5.86 ± 0.21 µM	1.29 ± 0.11 µM	0.82 ± 0.08 µM	4020 µM (≈ 2420 µg/mL)	0.7	126 to 129 °C	0.93 ± 0.08 µM	
